These results are taken from PubChem BioAssay (NCI).

Among the test systems are 786-0 renal; IGROV1 ovarian; SF-268 CNS; SF-539 CNS; SK-MEL-5 melanoma; SK-OV-3 ovarian; SN12C renal; SNB-19 CNS.
Assay in all cases: NCI-60 cell line screen, 48 h

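Values below derive from 48-hour exposures of cells grown in 96-well plates, with endpoints linearly interpolated between the two concentrations bracketing the appropriate inhibition level. TGI: total growth inhibition.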 Where only a bound is given, the exact number is not on record here.

Take `CCOC(=O)/C(O)=C(/c1n[nH]c(=O)c2ccccc12)[N+](=O)[O-]`: the TGI in the experiment with 786-0 renal, in the experiment on IGROV1 ovarian, in the experiment with SF-268 CNS, in the experiment with SF-539 CNS, with SK-MEL-5 melanoma and with SK-OV-3 ovarian was greater than 100 µM each time. The TGI in the experiment on SN12C renal and with SNB-19 CNS was greater than 100 µM in each case.
As to `COC(=O)C1=C(O)c2cc(OC)c(OC)c(OC)c2[C@H](c2cc(OC)c(OC)c(OC)c2)C1C(=O)OC` (some centres undefined), the TGI with 786-0 renal is greater than 100 µM; in the experiment with IGROV1 ovarian, greater than 100 µM; in the experiment on SF-268 CNS, greater than 100 µM; with SF-539 CNS, 38.9 µM; with SK-MEL-5 melanoma, greater than 100 µM; in the experiment on SK-OV-3 ovarian, greater than 100 µM. Besides, the TGI in the experiment with SN12C renal and in the experiment on SNB-19 CNS was greater than 100 µM each time.
As to `O=c1cccccc1NCCOCCNc1cccccc1=O`, the TGI with 786-0 renal, in the experiment on IGROV1 ovarian, with SF-268 CNS, in the experiment on SK-MEL-5 melanoma, in the experiment with SK-OV-3 ovarian and with SN12C renal was greater than 100 µM each time. The same compound returned a TGI in the experiment on SNB-19 CNS greater than 100 µM.
On to `Cc1[nH]c2ccccc2c1C1Cc2ccccc2N1C(=O)/C=C/C=C/c1ccccc1` (centres undefined), for which the TGI in the experiment on 786-0 renal, in the experiment with IGROV1 ovarian, with SF-539 CNS, in the experiment on SK-MEL-5 melanoma, in the experiment on SK-OV-3 ovarian and with SN12C renal was greater than 100 µM throughout. The compound further had a TGI with SNB-19 CNS greater than 100 µM.
`O=S(=O)(/C=C/c1ccc(Cl)cc1Cl)Cc1ccccc1CS(=O)(=O)/C=C/c1ccc(Cl)cc1Cl`: the TGI in the experiment on 786-0 renal, with IGROV1 ovarian, in the experiment on SF-268 CNS, with SF-539 CNS, in the experiment on SK-OV-3 ovarian and in the experiment on SN12C renal was greater than 100 µM throughout. The TGI in the experiment on SNB-19 CNS is greater than 100 µM.
For `CCOC(C)C(/C=N/NC(N)=S)=NNC(N)=S` (centres undefined), the TGI in the experiment on 786-0 renal, in the experiment with SF-268 CNS, in the experiment with SF-539 CNS, with SK-MEL-5 melanoma, in the experiment with SK-OV-3 ovarian and in the experiment with SN12C renal was greater than 100 µM in each case. In the experiment on SNB-19 CNS, this compound returned a TGI greater than 100 µM.
`CS(=O)(=O)NNS(=O)(=O)c1cccc([N+](=O)[O-])c1`: the TGI in the experiment on 786-0 renal, in the experiment with IGROV1 ovarian, in the experiment with SF-539 CNS, in the experiment with SK-MEL-5 melanoma, in the experiment with SN12C renal and with SNB-19 CNS was greater than 100 µM throughout.
Turning to `COC(=O)C1=C2CCC(=O)[C@@]2(C)C(OC(C)=O)C=CC1` (some centres undefined), the TGI in the experiment on 786-0 renal, in the experiment on IGROV1 ovarian, with SF-539 CNS, in the experiment with SK-MEL-5 melanoma, in the experiment with SK-OV-3 ovarian and in the experiment with SN12C renal was greater than 100 µM throughout.
As to `COc1ccc(C(=O)C(c2ccc(OC)cc2)C2(O)C(=O)Nc3ccccc32)cc1` (centres undefined), the TGI with 786-0 renal, in the experiment with IGROV1 ovarian, in the experiment on SF-268 CNS, in the experiment with SF-539 CNS, in the experiment on SK-OV-3 ovarian and in the experiment on SN12C renal was greater than 100 µM in each case. Moreover, the TGI in the experiment with SNB-19 CNS is greater than 100 µM.
For `O=C(O)C(CP(=O)(O)O)=C(Cl)Cl`, the TGI with 786-0 renal, in the experiment on IGROV1 ovarian, in the experiment on SF-268 CNS, in the experiment on SF-539 CNS, in the experiment with SK-OV-3 ovarian and in the experiment with SN12C renal was greater than 100 µM each time. Moreover, the TGI in the experiment on SNB-19 CNS was greater than 100 µM.
For `COc1cc(/C=C2/C(=O)N(C(=O)OC(C)C)C(Cc3cc(OC)c(OC)c(C)c3OC)C(=O)N2Cc2ccccc2)c(OC)c(C)c1OC` (centres undefined), the TGI in the experiment with 786-0 renal, with IGROV1 ovarian, in the experiment with SF-268 CNS, with SF-539 CNS, in the experiment on SK-MEL-5 melanoma and in the experiment on SK-OV-3 ovarian was greater than 100 µM in each case. The same compound registered a TGI in the experiment with SN12C renal greater than 100 µM.
With `COc1ccc(C(=O)OCC2OC(n3cnc4c(=S)nc[nH]c43)C(OC(=O)c3ccc(OC)cc3)C2OC(=O)c2ccc(OC)cc2)cc1` (centres undefined), the TGI in the experiment on 786-0 renal, with IGROV1 ovarian, with SF-268 CNS, in the experiment on SF-539 CNS, in the experiment on SK-MEL-5 melanoma and with SNB-19 CNS was greater than 100 µM each time.
For `O=c1/c(=C/c2cccc([N+](=O)[O-])c2)sc2nc3ccccc3n12`, the TGI in the experiment on 786-0 renal, in the experiment with SF-268 CNS, in the experiment with SK-OV-3 ovarian and with SN12C renal was greater than 100 µM in each case.
For the compound `CCOC(=O)C12CCCC1(O)N(NC(=O)c1ccccc1)C(C)=C2C(=O)OC` (centres undefined), the TGI in the experiment with 786-0 renal, in the experiment on IGROV1 ovarian, in the experiment on SF-268 CNS, with SF-539 CNS, in the experiment on SK-OV-3 ovarian and in the experiment on SN12C renal was greater than 100 µM throughout. Further, in the experiment with SNB-19 CNS, the TGI is greater than 100 µM.
